# From article PMC11243149, “Assessing the Effects of Thiazole-Carboxamide Derivatives on the Biophysical Properties of AMPA Receptor Complexes as a Potential Neuroprotective Agent” (Molecules, 2024)
# Read-outs that look alike come from different tables or passages of the source.
# Columns and labels:
# Assay type in all cases: cell-based
# [1] = molecular target: T1, GluA1 (Homo sapiens, UniProt P42261); experiment: Whole-cell patch-clamp recordings of homomeric GluA1 AMPAR in transfected HEK293T cells; settings: GluA1; for Amplitude (glutamate plus TC compound): 10 mM glutamate + TC compound (12 µM optimal concentration), HEK293T, -60 mV, pH 7.4, 22 °C, mean ± SEM; for t deact: weighted tau of deactivation, 10 mM glutamate for 1 ms, glutamate alone 2.1±0.1; for t deact / t des: with TC compound; for t des: weighted tau of desensitization, 10 mM glutamate 500 ms, glutamate alone 2.5±0.1
# T1 construct: expressed in transfected cells; host or cells: HEK293T
# T1 sequence (P42261 19-906 isoform P42261-2 limits assumed, species assumed): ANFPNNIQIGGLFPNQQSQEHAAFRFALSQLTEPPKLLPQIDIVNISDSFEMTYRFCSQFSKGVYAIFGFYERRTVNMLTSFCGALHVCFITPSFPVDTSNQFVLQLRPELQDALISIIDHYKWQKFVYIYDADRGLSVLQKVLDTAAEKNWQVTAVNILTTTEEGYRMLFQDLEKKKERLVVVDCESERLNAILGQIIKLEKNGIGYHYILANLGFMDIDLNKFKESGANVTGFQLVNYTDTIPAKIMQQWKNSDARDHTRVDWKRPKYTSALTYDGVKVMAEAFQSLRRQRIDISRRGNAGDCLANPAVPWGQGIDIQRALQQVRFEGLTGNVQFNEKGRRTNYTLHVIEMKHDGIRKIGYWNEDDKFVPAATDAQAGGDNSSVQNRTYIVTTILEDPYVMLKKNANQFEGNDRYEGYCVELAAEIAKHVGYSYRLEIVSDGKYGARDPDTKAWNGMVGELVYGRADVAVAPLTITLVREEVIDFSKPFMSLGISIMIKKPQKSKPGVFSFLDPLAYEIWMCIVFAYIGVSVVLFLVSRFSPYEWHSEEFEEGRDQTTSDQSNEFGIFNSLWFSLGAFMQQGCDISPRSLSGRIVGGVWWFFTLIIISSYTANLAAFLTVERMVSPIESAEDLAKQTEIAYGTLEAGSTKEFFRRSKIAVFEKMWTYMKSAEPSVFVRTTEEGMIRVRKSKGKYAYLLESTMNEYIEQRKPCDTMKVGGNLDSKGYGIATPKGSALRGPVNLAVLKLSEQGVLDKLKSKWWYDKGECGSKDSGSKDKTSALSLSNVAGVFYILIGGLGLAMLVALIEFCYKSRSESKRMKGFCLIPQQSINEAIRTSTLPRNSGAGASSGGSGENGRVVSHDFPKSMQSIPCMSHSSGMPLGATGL
# Protocol: (§1) The effect of five TC compounds on whole-cell currents of four AMPAR subunits (GluA1, GluA1/2, GluA2, and GluA2/3) was investigated using transfected HEK293T cells. Each compound was applied separately to each subunit, with experiments conducted on 8–10 cells per condition to ensure reproducibility. […] At a glutamate concentration of 10 mM and a 500 ms protocol, approximately 95% of AMPAR channels were open. The A/AI ratio was calculated to compare the results, where A represents normalized current readings and AI indicates the inhibited current following TC compound exposure. […] Following closely, TC-1 inhibited the tested subunits by 5-fold.
# (§2) The IC50 values were examined using GraphPad Prism software 9.5.0.730 (x64) (Table S6), which confirmed these findings. The IC50 values of TC substances were calculated by standardizing the peak current amplitudes using data obtained from 8–10 cells. Following a 500 ms exposure to the compounds, the cells were rinsed with glutamate for 20 s. Next, a solution containing just glutamate at a concentration of 10 mM was administered, and the resulting immediate induced electrical current was measured and documented (Figure 3).
# (§3) In addition, an evaluation was conducted on the deactivation rates (τw deact) of all the examined chemicals to investigate their impact on the kinetics of deactivation. The chemicals were assessed for their effect on the deactivation kinetics of AMPAR subunits by briefly administering 10 mM glutamate for 1 ms to begin currents. This experimental setup allowed for the observation of τw deact under controlled conditions. […] TC-5 induced an approximately 2-fold increase in τw deact across all four tested subunits. […] These findings highlight the differential impact of TC compounds on deactivation kinetics across AMPAR subunits, shedding light on their potential neuroprotective mechanisms.
# (§4) The flip isoform was uniformly employed across all AMPAR subunits in this study. These subunits were subcloned into the pRK vector and expressed in Human Embryonic kidney cells sourced (Sigma, München, Germany). HEK293T cells were grown in Dulbecco Modified Eagle Medium (DMEM) (Sigma, München, Germany) containing 10% FBS (fetal bovine serum), 0.1 mg/mL streptomycin, and 1 mM sodium pyruvate (Biological Industries; Beit-Haemek, Israel). HEK293T cells were incubated at 37 °C and 5% CO2 was supplemented to the medium. It was subcultured twice a week until cells reached pass #20. The transfection reagent used was either jetPRIME (Polyplus: New York, NY, USA) or Lipofectamine 2000 (Invitrogen; San Diego, CA, USA). Cells were kept for 36 h. after transfection in 12-well plates. Then, they were replated on coverslips coated with Laminin (1 mg/mL; Sigma, Germany) for electrophysiology recordings. Cells were then seeded in Petri dishes in DMEM supplemented with 10% fetal calf serum and antibiotics and maintained in a humidified incubator at 37 °C and 5% CO2. Highly fluorescent cells were identified and selected for recording post-transfection.
# (§5) HEK293T cells were recorded for 36–48 h, at a temperature of 22 °C, with a membrane potential of −60 mV. HEK293T cells were recorded 36–48 h after transfection using IPA (Integrated Patch Amplifier) via the […], at a temperature of 22 °C, with a membrane potential of −60 mV. SutterPatch Software v. 1.1.1 (Sutter Instruments, Novato, CA, USA) was used to digitize membrane currents for a short period. The sampling frequency was set to 10 kHz, and the low-pass filter was set to 2 kHz. Borosilicate glass was used to fabricate the patch electrodes with a resistance of 2–4 MΩ. The extracellular solution contained the following (values are in mM): 150 NaCl, 2.8 KCl, 0.5 MgCl2, 2 CaCl2, and 10 HEPES, adjusted to pH 7.4 with NaOH. The pipette solution contained the following (values are in mM): 110 CsF, 30 CsCl, 4 NaCl, 0.5 CaCl2, 10 […], and 10 HEPES, adjusted to pH 7.2 with CsOH. […]
# [2] = molecular target: T2, GluA1/2 (Homo sapiens, UniProt P42261+P42262); experiment: Whole-cell patch-clamp recordings of heteromeric GluA1/2 AMPAR in transfected HEK293T cells; settings: for Amplitude (glutamate plus TC compound): 10 mM glutamate + TC compound (12 µM optimal concentration), HEK293T, -60 mV, pH 7.4, 22 °C, mean ± SEM; for Amplitude (glutamate plus TC compound) / Amplitude, applying glutamate alone after TC compound: n = 10; for Amplitude, applying glutamate alone after TC compound: 10 mM glutamate alone after 20 s wash following the TC compound; for A/AI: ratio of current with glutamate alone (A) to inhibited current after TC compound (AI); for t deact: weighted tau of deactivation, 10 mM glutamate for 1 ms, glutamate alone 2.5±0.3; for t deact / t des: with TC compound; for t des: weighted tau of desensitization, 10 mM glutamate 500 ms, glutamate alone 5.2±0.5
# T2 construct: expressed in transfected cells; host or cells: HEK293T
# T2 sequence (P42261 19-906 isoform P42261-2 limits assumed): as the sequence (P42261 19-906 isoform P42261-2 limits assumed, species assumed) above
# T2 sequence (P42262 25-883 isoform P42262-2 limits assumed): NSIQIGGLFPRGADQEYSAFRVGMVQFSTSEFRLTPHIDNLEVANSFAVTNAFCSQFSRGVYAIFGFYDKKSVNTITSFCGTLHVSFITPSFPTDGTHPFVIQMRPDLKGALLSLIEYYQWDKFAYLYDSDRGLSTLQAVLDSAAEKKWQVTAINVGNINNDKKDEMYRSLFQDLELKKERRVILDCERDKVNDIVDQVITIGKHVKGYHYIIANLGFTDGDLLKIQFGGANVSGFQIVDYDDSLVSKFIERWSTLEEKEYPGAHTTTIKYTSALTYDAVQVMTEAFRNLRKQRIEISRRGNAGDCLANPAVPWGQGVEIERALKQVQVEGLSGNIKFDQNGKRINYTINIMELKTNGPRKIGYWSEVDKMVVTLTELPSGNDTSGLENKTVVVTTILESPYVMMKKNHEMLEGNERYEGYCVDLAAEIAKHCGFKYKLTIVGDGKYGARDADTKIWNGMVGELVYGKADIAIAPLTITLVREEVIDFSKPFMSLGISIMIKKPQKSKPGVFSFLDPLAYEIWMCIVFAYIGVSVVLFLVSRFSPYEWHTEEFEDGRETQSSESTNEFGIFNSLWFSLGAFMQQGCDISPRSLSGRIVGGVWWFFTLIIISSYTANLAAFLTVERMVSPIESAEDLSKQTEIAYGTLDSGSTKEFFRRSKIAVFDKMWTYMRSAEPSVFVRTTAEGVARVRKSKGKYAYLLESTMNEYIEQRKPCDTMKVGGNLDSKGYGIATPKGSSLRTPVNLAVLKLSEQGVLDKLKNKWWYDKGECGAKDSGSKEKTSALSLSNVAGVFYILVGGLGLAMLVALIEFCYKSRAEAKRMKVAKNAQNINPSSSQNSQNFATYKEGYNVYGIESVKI
# Protocol: as §1, §2, §3, §4, §5
# [3] = molecular target: T3, GluA2 (Homo sapiens, UniProt P42262); experiment: Whole-cell patch-clamp recordings of homomeric GluA2 AMPAR in transfected HEK293T cells; settings: for Amplitude (glutamate plus TC compound): 10 mM glutamate + TC compound (12 µM optimal concentration), HEK293T, -60 mV, pH 7.4, 22 °C, mean ± SEM; for Amplitude (glutamate plus TC compound) / Amplitude, applying glutamate alone after TC compound: n = 10; for Amplitude, applying glutamate alone after TC compound: 10 mM glutamate alone after 20 s wash following the TC compound; for t deact: weighted tau of deactivation, 10 mM glutamate for 1 ms, glutamate alone 2.3±0.1; for t deact / t des: with TC compound; for t des: weighted tau of desensitization, 10 mM glutamate 500 ms, glutamate alone 2.6±0.1
# T3 construct: expressed in transfected cells; host or cells: HEK293T
# T3 sequence (P42262 25-883 isoform P42262-2 limits assumed, species assumed): as the sequence (P42262 25-883 isoform P42262-2 limits assumed) above
# Protocol: as §1, §2, §3, §4, §5
# [4] = molecular target: T4, GluA2/3 (Homo sapiens, UniProt P42262+P42263); experiment: Whole-cell patch-clamp recordings of heteromeric GluA2/3 AMPAR in transfected HEK293T cells; settings: for Amplitude (glutamate plus TC compound): 10 mM glutamate + TC compound (12 µM optimal concentration), HEK293T, -60 mV, pH 7.4, 22 °C, mean ± SEM; for Amplitude (glutamate plus TC compound) / Amplitude, applying glutamate alone after TC compound: n = 10; for Amplitude, applying glutamate alone after TC compound: 10 mM glutamate alone after 20 s wash following the TC compound; for A/AI: ratio of current with glutamate alone (A) to inhibited current after TC compound (AI); for t deact: weighted tau of deactivation, 10 mM glutamate for 1 ms, glutamate alone 2.6±0.3; for t deact / t des: with TC compound; for t des: weighted tau of desensitization, 10 mM glutamate 500 ms, glutamate alone 2.7±0.2
# T4 construct: expressed in transfected cells; host or cells: HEK293T
# T4 sequence (P42262 25-883 isoform P42262-2 limits assumed): as above
# T4 sequence (P42263 29-894 isoform P42263-2 limits assumed): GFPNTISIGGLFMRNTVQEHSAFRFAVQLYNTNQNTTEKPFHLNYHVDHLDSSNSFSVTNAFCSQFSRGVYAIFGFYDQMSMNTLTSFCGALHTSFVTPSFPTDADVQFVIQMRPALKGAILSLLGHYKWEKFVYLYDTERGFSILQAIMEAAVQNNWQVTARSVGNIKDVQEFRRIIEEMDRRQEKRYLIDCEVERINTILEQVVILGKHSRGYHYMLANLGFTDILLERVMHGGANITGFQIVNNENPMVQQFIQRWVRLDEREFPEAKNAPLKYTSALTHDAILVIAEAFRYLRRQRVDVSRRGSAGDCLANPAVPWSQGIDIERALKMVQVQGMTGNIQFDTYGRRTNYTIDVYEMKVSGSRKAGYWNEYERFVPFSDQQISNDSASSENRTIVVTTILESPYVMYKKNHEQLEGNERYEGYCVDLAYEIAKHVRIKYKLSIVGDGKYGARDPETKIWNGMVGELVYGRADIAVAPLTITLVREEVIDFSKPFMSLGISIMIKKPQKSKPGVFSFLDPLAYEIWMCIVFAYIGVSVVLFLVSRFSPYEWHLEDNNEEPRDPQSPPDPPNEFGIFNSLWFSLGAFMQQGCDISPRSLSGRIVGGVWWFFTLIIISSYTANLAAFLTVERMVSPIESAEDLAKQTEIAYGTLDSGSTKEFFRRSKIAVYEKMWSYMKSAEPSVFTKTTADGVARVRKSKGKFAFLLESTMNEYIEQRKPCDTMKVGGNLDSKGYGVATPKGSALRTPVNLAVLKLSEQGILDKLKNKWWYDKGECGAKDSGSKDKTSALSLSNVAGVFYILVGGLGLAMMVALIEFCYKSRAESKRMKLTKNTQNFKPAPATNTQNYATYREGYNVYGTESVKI
# Protocol: as §1, §2, §3, §4, §5
# [5] = tested on: AMPAR subunits (GluA1, GluA1/2, GluA2, and GluA2/3); experiment: Whole-cell patch-clamp recordings, statements over all tested AMPAR subunits; settings: for reduction in τw des: across all examined subunits; for increase in τw deact / decrease in AMPAR subunit activity (inhibition of the whole-cell current): all tested subunits; for increase in τw deact: 10 mM glutamate for 1 ms; for decrease in AMPAR subunit activity (inhibition of the whole-cell current): 10 mM glutamate, 500 ms protocol
# Protocol: as §1
# A thorough investigation was performed to assess the neuroprotective potential of the TC compounds. The influence of the five TC compounds on the desensitization traces is seen in Figure 4, namely in panels b, d, f, and h. TC-2 caused a substantial reduction in τw des in all receptor subunits, with decreases ranging from 2 to 3 times.
# as §3, §4
# as §5, with “CsOH. Using double barrel glass (theta tube), glutamate and the solutions of choice were rapidly administered, and the theta tube was mounted on a high-speed piezo solution switcher (Automate Scientific, Berkeley, CA, USA).” for “CsOH.”
# [6] = Table S6, read-out: Log IC50 (converted)
# [7] = ratio of current with glutamate alone (A) to inhibited current after TC compound (AI)
# [8] = Table S6, peak current amplitudes, 8-10 cells, GraphPad Prism fit, read-out: IC50
Structure (SMILES),Amplitude (glutamate plus TC compound) ([1]; n = 10),"IC50 [1, 6]",t deact [1],t des [1],Amplitude (glutamate plus TC compound) [2],"Amplitude, applying glutamate alone after TC compound [2]","IC50 [2, 6]",A/AI [2],t deact [2],t des [2],Amplitude (glutamate plus TC compound) [3],"Amplitude, applying glutamate alone after TC compound [3]","IC50 [3, 6]",IC50 ([3]; read-out: IC50),t deact [3],t des [3],Amplitude (glutamate plus TC compound) [4],"Amplitude, applying glutamate alone after TC compound [4]","IC50 [4, 6]",A/AI [4],also measured
COc1ccc(-c2nc(C(=O)Nc3cc(OC)c(OC)c(OC)c3)cs2)cc1 [TC-2],172±18 pA,3.24 µM,5.6 ± 0.3 ms,1.1 ± 0.1 ms,115±12 pA,597±66 pA,3.09 µM,5.38±0.08,6.0 ± 0.5 ms,3.7 ± 0.3 ms,212±20 pA,1131±105 pA,3.02 µM,3.02 µM,6.3 ± 0.2 ms,0.9 ± 0.1 ms,94±14 pA,484±68 pA,3.02 µM,5.33±0.23,"Amplitude, applying glutamate alone after TC compound ([1]; 10 mM glutamate alone after 20 s wash following the TC compound, n = 10): 841±88 pA; IC50 ([1]; read-out: IC50): 3.2 µM; IC50 ([2]; read-out: IC50): 3.1 µM; A/AI [3, 7]: 5.49±0.05; IC50 ([4]; read-out: IC50): 3.04 µM; t deact [4]: 5.9 ± 0.4 ms; t des [4]: 1.0 ± 0.2 ms; reduction in τw des [5]: 2 to 3 fold; increase in τw deact [5]: ~2.5 fold; decrease in AMPAR subunit activity (inhibition of the whole-cell current) [5]: ~5.5 fold"
COc1ccc(-c2nc(C(=O)Nc3cc(OC)ccc3OC)cs2)cc1 [TC-5],177±33 pA,3.55 µM,5.5 ± 0.4 ms,1.4 ± 0.1 ms,123±20 pA,553±89 pA,3.47 µM,4.80±0.07,5.6 ± 0.4 ms,3.8 ± 0.3 ms,250±35 pA,1071±134 pA,3.31 µM,3.35 µM,5.8 ± 0.3 ms,1.2 ± 0.1 ms,99±22 pA,443±96 pA,3.39 µM,4.79±0.20,"IC50 [1, 8]: 3.51 µM; A/AI [1, 7]: 4.67±0.10; IC50 [2, 8]: 3.49 µM; IC50 [4, 8]: 3.42 µM; t deact [4]: 5.7 ± 0.4 ms; t des [4]: 1.3 ± 0.2 ms; reduction in τw des [5]: roughly twofold; increase in τw deact [5]: around 2 fold; decrease in AMPAR subunit activity (inhibition of the whole-cell current) [5]: approximately 5 fold"
